In PubChem BioAssay AID248 (DTP/NCI, 2004):
Inconclusive results and toxic doses are left out. No stated cut-off is given here; in the data, active means T/C of 150% or more; inactive means T/C below 125%.

Test system: L1210 leukemia ip in BDF1 mice, survival T/C
Experiment: NCI In Vivo Anticancer Drug Screen. Data for tumor model L1210 Leukemia (intraperitoneal) in B6D2F1 (BDF1) mice
Conditions: endpoint: mean survival time, higher = longer survival
Outline: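 Tumor was transplanted into mice, which were then dosed with test compound or vehicle alone. Survival was recorded for each group, and the treated figure was expressed relative to the control figure.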

[1] = dose: 100.0 mg/kg/injection, schedule: Q01DX009 (ip), vehicle: saline with Tween-80
[2] = dose: 200.0 mg/kg/injection, schedule: Q01DX009 (ip), vehicle: saline with Tween-80
[3] = dose: 400.0 mg/kg/injection, schedule: Q01DX009 (ip), vehicle: saline with Tween-80
[4] = dose: 100.0 mg/kg/injection, schedule: Q01DX009 (ip), vehicle: Klucel (hydroxypropylcellulose) (HPC)
[5] = dose: 25.0 mg/kg/injection, schedule: Q04DX003 (ip), vehicle: Klucel (hydroxypropylcellulose) (HPC)
[6] = dose: 50.0 mg/kg/injection, schedule: Q04DX003 (ip), vehicle: Klucel (hydroxypropylcellulose) (HPC)
[7] = dose: 50.0 mg/kg/injection, schedule: Q01DX001 (ip), vehicle: saline
[8] = dose: 100.0 mg/kg/injection, schedule: Q01DX001 (ip), vehicle: saline
[9] = dose: 200.0 mg/kg/injection, schedule: Q01DX001 (ip), vehicle: saline
[10] = dose: 400.0 mg/kg/injection, schedule: Q01DX001 (ip), vehicle: saline

Measured: T/C

Cn1nc(NC(=O)C(F)(F)F)c2ncc(-c3ccc(Cl)cc3)nc21
inactive: [1] 102 % of control | dose: 100.0 mg/kg/injection, schedule: Q04DX003 (ip), vehicle: saline with Tween-80 100 % of control | [2] 97 % of control | dose: 200.0 mg/kg/injection, schedule: Q04DX003 (ip), vehicle: saline with Tween-80 87 % of control | [3] 97 % of control | dose: 400.0 mg/kg/injection, schedule: Q04DX003 (ip), vehicle: saline with Tween-80 96 % of control

Cc1cc(C(=O)O)c(C)cc1SSc1cc(C)c(C(=O)O)cc1C
inactive: dose: 75.0 mg/kg/injection, schedule: Q01DX001 (ip), vehicle: carboxymethylcellulose (CMC) 94 % of control | dose: 150.0 mg/kg/injection, schedule: Q01DX001 (ip), vehicle: carboxymethylcellulose (CMC) 94 % of control | dose: 300.0 mg/kg/injection, schedule: Q01DX001 (ip), vehicle: carboxymethylcellulose (CMC) 88 % of control

CC1=NOC(=O)C12CC2
inactive: dose: 75.0 mg/kg/injection, schedule: Q01DX001 (ip), vehicle: saline 100 % of control | dose: 150.0 mg/kg/injection, schedule: Q01DX001 (ip), vehicle: saline 100 % of control | dose: 300.0 mg/kg/injection, schedule: Q01DX001 (ip), vehicle: saline 103 % of control

Clc1ccc(NC2=NCCS2)cc1
inactive: [4] 104 % of control | dose: 200.0 mg/kg/injection, schedule: Q01DX009 (ip), vehicle: Klucel (hydroxypropylcellulose) (HPC) 100 % of control | dose: 400.0 mg/kg/injection, schedule: Q01DX009 (ip), vehicle: Klucel (hydroxypropylcellulose) (HPC) 93 % of control

Cc1nc(N)ccc1[N+](=O)[O-]
inactive: dose: 100.0 mg/kg/injection, schedule: Q04DX003 (ip), vehicle: saline sonified 98 % of control | dose: 200.0 mg/kg/injection, schedule: Q04DX003 (ip), vehicle: saline sonified 101 % of control | dose: 400.0 mg/kg/injection, schedule: Q04DX003 (ip), vehicle: saline sonified 104 % of control

CC(=O)Nc1cc(NC(C)=O)cc([N+](=O)[O-])c1
inactive: dose: 50.0 mg/kg/injection, schedule: Q01DX009 (ip), vehicle: saline 96 % of control | dose: 100.0 mg/kg/injection, schedule: Q01DX009 (ip), vehicle: saline 105 % of control | dose: 100.0 mg/kg/injection, schedule: Q04DX003 (ip), vehicle: saline 94 % of control | dose: 200.0 mg/kg/injection, schedule: Q04DX003 (ip), vehicle: saline 102 % of control | dose: 400.0 mg/kg/injection, schedule: Q04DX003 (ip), vehicle: saline 100 % of control

CCC(COS(=O)(=O)c1ccc(C)cc1)[N+](=O)[O-] (stereo unspecified)
inactive: [5] 112 % of control | [6] 96 % of control | dose: 100.0 mg/kg/injection, schedule: Q04DX003 (ip), vehicle: Klucel (hydroxypropylcellulose) (HPC) 86 % of control

O=C(COc1cccc(Cl)c1)Nc1ccc(C(=O)CCl)cc1
inactive: dose: 100.0 mg/kg/injection, schedule: Q01DX001 (ip), vehicle: gum acacia 90 % of control | dose: 200.0 mg/kg/injection, schedule: Q01DX001 (ip), vehicle: gum acacia 100 % of control | dose: 400.0 mg/kg/injection, schedule: Q01DX001 (ip), vehicle: gum acacia 99 % of control

O=S1(=O)CC(O)C1
inactive: [7] 91 % of control | [8] 100 % of control | [9] 94 % of control | [10] 105 % of control

O=C(CSc1ccc(Cl)cc1)Nc1ccccc1
inactive: dose: 100.0 mg/kg/injection, schedule: Q04DX002 (ip), vehicle: gum acacia 92 % of control | dose: 200.0 mg/kg/injection, schedule: Q04DX002 (ip), vehicle: gum acacia 87 % of control | dose: 400.0 mg/kg/injection, schedule: Q04DX002 (ip), vehicle: gum acacia 89 % of control

Cc1ccc(S(=O)(=O)Oc2ccc(N(CC(=O)O)S(=O)(=O)c3ccc(C)cc3)cc2)cc1
inactive: dose: 100.0 mg/kg/injection, schedule: Q01DX001 (ip), vehicle: water 98 % of control | dose: 100.0 mg/kg/injection, schedule: Q04DX003 (ip), vehicle: water 94 % of control | dose: 200.0 mg/kg/injection, schedule: Q01DX001 (ip), vehicle: water 96 % of control | dose: 200.0 mg/kg/injection, schedule: Q04DX003 (ip), vehicle: water 88 % of control | dose: 400.0 mg/kg/injection, schedule: Q01DX001 (ip), vehicle: water 97 % of control | dose: 400.0 mg/kg/injection, schedule: Q04DX003 (ip), vehicle: water 96 % of control

Nc1cc(N)c(O)c(N)c1
inactive: dose: 0.5 mg/kg/injection, schedule: Q04DX003 (ip), vehicle: saline 103 % of control | dose: 1.0 mg/kg/injection, schedule: Q04DX003 (ip), vehicle: saline 105 % of control | dose: 1.25 mg/kg/injection, schedule: Q01DX009 (ip), vehicle: saline 95 % of control | dose: 2.0 mg/kg/injection, schedule: Q04DX003 (ip), vehicle: saline 111 % of control | dose: 2.5 mg/kg/injection, schedule: Q01DX009 (ip), vehicle: saline 90 % of control | dose: 5.0 mg/kg/injection, schedule: Q01DX009 (ip), vehicle: saline 97 % of control

CC(C)CCCC(C)C1CCC2C3CC(=O)OC45CC4CCC5(C)C3CCC12C (stereo unspecified)
inactive: dose: 100.0 mg/kg/injection, schedule: Q01DX001 (ip), vehicle: acetone 94 % of control | dose: 100.0 mg/kg/injection, schedule: Q01DX009 (ip), vehicle: acetone 89 % of control | dose: 200.0 mg/kg/injection, schedule: Q01DX001 (ip), vehicle: acetone 89 % of control | dose: 200.0 mg/kg/injection, schedule: Q01DX009 (ip), vehicle: acetone 91 % of control | dose: 400.0 mg/kg/injection, schedule: Q01DX001 (ip), vehicle: acetone 91 % of control | dose: 400.0 mg/kg/injection, schedule: Q01DX009 (ip), vehicle: acetone 90 % of control

CCCCN(CCCC)CCNc1ccc(Cl)c2oc3cc(C)ccc3c(=O)c12
inactive: dose: 12.5 mg/kg/injection, schedule: Q01DX009 (ip), vehicle: Klucel (hydroxypropylcellulose) (HPC) 95 % of control | dose: 12.5 mg/kg/injection, schedule: Q04DX003 (ip), vehicle: saline with Tween-80 94 % of control | dose: 25.0 mg/kg/injection, schedule: Q01DX009 (ip), vehicle: Klucel (hydroxypropylcellulose) (HPC) 92 % of control | dose: 25.0 mg/kg/injection, schedule: Q04DX003 (ip), vehicle: saline with Tween-80 95 % of control | [7] 93 % of control | dose: 50.0 mg/kg/injection, schedule: Q01DX009 (ip), vehicle: Klucel (hydroxypropylcellulose) (HPC) 93 % of control | dose: 50.0 mg/kg/injection, schedule: Q04DX003 (ip), vehicle: saline with Tween-80 87 % of control | [8] 98 % of control | [4] 95 % of control | [9] 93 % of control | [10] 98 % of control

CC/C(I)=C(/CC)S(=O)(=O)c1ccc(C)cc1
inactive: [8] 101 % of control | [1] 98 % of control | [9] 103 % of control | [2] 102 % of control | [10] 111 % of control | [3] 98 % of control

BrCCCC[P+](c1ccccc1)(c1ccccc1)c1ccccc1
inactive: dose: 12.5 mg/kg/injection, schedule: Q04DX003 (ip), vehicle: Klucel (hydroxypropylcellulose) (HPC) 95 % of control | [5] 106 % of control | [7] 107 % of control | [6] 98 % of control | [8] 110 % of control
